Source: US10400263B2, “Tripeptide rhodamine compound” (Kingston Uninversity Higher Education Corporation, priority 2012, dated 2019)

What was measured:
S. warneri = test: LGX system, S. warneri; type: cell-based
Method: (§1) Each sample was rinsed liberally in sterile 1×PBS and varying concentrations of bacterial suspension from 10^0-10^6 were generated by serial dilution in 1×PBS. Additionally, bacterial cultures were furthermore maintained on nutrient agar to assess the coagulase status of the isolate.
(§2) To determine the effects of varying bacterial concentrations with respect to bacterial strains and concentrations of the compounds according to the present invention on staphylocoagulase activity, 100 and 50 μM solutions containing LGX were prepared in 1×PBS with the addition of 0.05 M Tris Buffer and 0.1 M NaCl to maintain a pH of 8.5 using LGX dissolved in MeOH so that final concentration of methanol was no more than 2.5%. […]
(§3) The plate reader used was a Fluostar Optima, and the plates used were Nunclon Surface 96 well plates. […]
(§4) To determine the effects of varying bacterial concentrations with respect to bacterial strains and LGX concentrations on staphylocoagulase activity, 100 and 50 μM solutions of LGX were prepared in 1×PBS with the addition of 0.05 M Tris Buffer and 0.1 M NaCl to maintain a pH of 8.5 using LGX dissolved in MeOH so that final concentration of methanol was no more than 2.5%. […] The plate reader used was a Fluostar Optima, and the plates used were Nunclon Surface 96 well plates.

MRSA = test: LGX staphylocoagulase fluorescence assay, MRSA isolates; type: cell-based, Staphylococcus aureus
Method: as §1
(§5) To determine the effects of varying bacterial concentrations with respect to bacterial strains and concentrations of the compounds according to the present invention on staphylocoagulase activity, 100 and 50 μM solutions containing LGX were prepared in 1×PBS with the addition of 0.05 M Tris Buffer and 0.1 M NaCl to maintain a pH of 8.5 using LGX dissolved in MeOH so that final concentration of methanol was no more than 2.5%. Furthermore, an appropriate concentration (100 μM and 50 μM, respectively) of human prothrombin was added to the solution.
(§6) The plate reader used was a Fluostar Optima, and the plates used were Nunclon Surface 96 well plates. Positive controls for each experiment was a strain of MRSA, and the negative control for each experiment was a strain of E. coli, both of which were picked at random to ensure there was no bias within the data. A 1:1 ratio of the LGX solution with PBS was also assayed as “LGX alone” sample, which has been designated as a black line on the graphs below. n=3 cultures were assayed in each case.
Clinical isolates of Methicillin Resistant Staphylococcus Aureus (MRSA), Methicillin Sensitive Staphylococcus Aureus (MSSA), Staphylococcus Epidermidis, Eschericia coli and other staphyloccal species were cultured on nutrient agar prior to being grown overnight in nutrient broth under shaking conditions at 37° C. Each sample was rinsed liberally in sterile 1×PBS and varying concentrations of bacterial suspension from […] were generated by serial dilution in 1×PBS. Additionally, bacterial cultures were furthermore maintained on nutrient agar to assess the coagulase status of the isolate.
as §4, with “2.5%. Furthermore, an appropriate concentration (100 μM and 50 μM, respectively) of human prothrombin was added to the solution. 90 μl of LGX solution in addition to each respective bacterial isolate at varying concentrations was added to a microtitre plate.” for “2.5%.”

M. luteus = test: LGX system, M. luteus; type: cell-based
Method: as §1, §2, §3, §4

[1] = system: coagulase negative staphylococci; test: LGX staphylocoagulase fluorescence assay, coagulase negative staphylococci panel; type: cell-based
Method: as §1, §5, §6

S. epidermidis = test: LGX staphylocoagulase fluorescence assay, S. epidermidis; type: cell-based, Staphylococcus Epidermidis; conditions: for fluorescence over the 6 hour time period: S. epidermidis, high and low concentrations
Method: as §1, §5
The plate reader used was a Fluostar Optima, and the plates used were Nunclon Surface 96 well plates. Positive controls for each experiment was a strain of MRSA, and the negative control for each experiment was a strain of E. coli, both of which were picked at random to ensure there was no bias within the data. A 1:1 ratio of the LGX solution with PBS was also assayed as “LGX alone” sample, which has been designated as a black line on the graphs below. n=3 cultures were assayed in each case. […]
as §4

Structure (SMILES): CC(C)[C@H](NC(=O)OC(C)(C)C)C(=O)N1CCC[C@H]1C(=O)N[C@@H](CCCNC(=N)N)C(=O)Nc1ccc2c(c1)Oc1cc(NC(=O)[C@H](CCCNC(=N)N)NC(=O)[C@@H]3CCCN3C(=O)[C@@H](NC(=O)OC(C)(C)C)C(C)C)ccc1C21OC(=O)c2ccccc21 (stereo partly drawn) [LGX, Rho-(Arg-Pro-Val-NHBoc)2]
- LGX SYSTEM (S. warneri): −
- samples failed to reach maximum fluorescence within the 6 hour time frame (MRSA; 50 μM LGX, MRSA 10^2): 60%
- samples reaching the maximum reading of 65,000 RFU within 4 hours (MRSA; 50 μM LGX, MRSA 10^2): 40%
- samples failed to reach maximum fluorescence within the 6 hour time frame (MRSA; 50 μM LGX, MRSA 10^3): 40%
- samples reaching the maximum reading of 65,000 RFU within 4 hours (MRSA; 50 μM LGX, MRSA 10^3): 60%
- samples failed to reach maximum fluorescence within 5 hours (MRSA; 50 μM LGX, MRSA 10^5): 20%
- samples reaching the maximum reading of 65,000 RFU within 2 hours (MRSA; 50 μM LGX, MRSA 10^5): 60%
- samples failed to reach maximum (MRSA; 50 μM LGX, MRSA 10^6): 10%
- samples reaching the maximum reading of 65,000 RFU within 2 hours (MRSA; 50 μM LGX, MRSA 10^6): 90%
- time by which maximum fluorescence level was reached, all samples (MRSA; 50 μM LGX, MRSA 10^6): ≤ 2 h
- time for fluorescence readings to reach a maximum (MRSA; 50 μM LGX, MRSA positive control at 10^6, 10^5 and 10^3): almost immediately or within an hour
- time for fluorescence readings to reach a maximum (MRSA; 50 μM LGX, MRSA positive control, lower concentrations): 6 h
- samples achieving a fluorescence reading of 20,000 within 1 hour (MRSA; 100 μM LGX, MRSA 10^2): 95%
- samples in which fluorescence reached its upper limits within 4 hours (MRSA; 100 μM LGX, MRSA 10^2): 40%
- time for fluorescence to reach a maximum (MRSA; 100 μM LGX, MRSA 10^2, FIG. 14): approximately 3 hours
- samples in which fluorescence reached its upper limits within 3 hours (MRSA; 100 μM LGX, MRSA 10^3): 40%
- MRSA reaching maximum fluorescence over the 6 hours time period (MRSA; 100 μM LGX, MRSA 10^4): 90%
- samples in which fluorescence reached its upper limits within 2 hours (MRSA; 100 μM LGX, MRSA 10^4): 50%
- isolates failed to reach maximum fluorescence over 6 hours (MRSA; 100 μM LGX, MRSA lower concentrations of 10^3 and 10^4 (so in the source)): 40%
- time for fluorescence to reach a maximum (MRSA; 100 μM LGX, MRSA positive control, all concentrations (10^4, 10^3 and 10^3 as printed)): ≤ 3 h
- LGX SYSTEM (MRSA; MRSA, detection of coagulase positive samples): +
- LGX SYSTEM (M. luteus): −
- coagulase result with LGX system (M. luteus): negative
- samples above 20,000 fluorescence units after 1 hour ([1]; 50 μM LGX, all concentrations of bacteria, coagulase negative staphylocci): 0%
- fluorescence over the duration of the experiment ([1]; 50 μM LGX, coagulase negative strains 10^6, 10^5, 10^3 and 10^2, FIG. 8): remain consistently low
- fluorescence response within 1 hour ([1]; 50 μM or 100 μM LGX, coagulase negative staphylococci): ≤ 5000 fluorescence units
- fluorescence across the 6 hour time period ([1]; 100 μM LGX, coagulase negative strains, FIG. 9): remained consistently low
- fluorescence over the 6 hour time period (S. epidermidis; 50 μM LGX, FIG. 13): no increase in fluorescence was observed
- fluorescence over the 6 hour time period (S. epidermidis; 100 μM LGX, FIG. 14): no increase in fluorescence was observed
- LGX SYSTEM (S. epidermidis; S. EPIDERMIDIS): −
